The values below come from patent US20200308240A1, “Targeting Innate Immune Signaling in Neuroinflammation and Neurodegeneration” (The General Hospital Corporation, priority 2016, published 2020).

Entries after “also recorded” stand apart in the source; their conditions may differ.

For test [1], the system named is neuronal differentiated ReNcell VM cells. Briefly: dsRNA mimetic (PolyIC)-induced neurodegeneration in differentiated ReNVM neurons, cell viability by Celltiter-Glo. The class given is cell-based, human. To be noted: for rescue of PolyIC (dsRNA)-induced neurodegeneration / neuronal death: differentiated ReNVM human neurons transfected with PolyIC, FIGS. 4B-N; for viability of ReNVM neurons transfected with PolyIC: escalating doses of poly IC, 48 hours (2 days), relative to mock-transfected neurons, FIG. 3A-F. On the procedure: FIGS. 3A-G. dsRNA induces a Type I interferon response and is sufficient to induced neurodegeneration in human neurons. A-E) Representative transmitted light images of differentiated ReNVM neurons transfected with increasing doses of PolyIC, a dsRNA mimetic, showing a dose-dependent loss of neurons after 48 hours. […] G) Western blots showing the elevated protein expression of type I interferon-stimulated genes in differentiated ReNVM cells 24 hour post transfection with PolyIC, using indicated antibodies.
FIGS. 4A-N. Inhibitors of key type I interferon regulators rescues PolyIC induced neurodegeneration in ReNVM cells.
Building on those findings, a novel in vitro human neuronal culture system was developed to recapitulate this pathophysiologic process. These cells can be used, e.g., to identify compounds that modulate dsRNA-mediated neurodegeneration, as a methodology for screening and validation of hits for the novel targets and related targets on the pathway for neurodegeneration and Alzheimer's disease pathogenesis as well as for purposes of drug screening and validation with the primary outcome being loss of neurons. Briefly, a dsRNA-mimetic was introduced into a human neural progenitor immortalized cell line, ReN VM cells, in vitro. There was profound induction of the Type I interferon signaling pathways that were stimulated in mouse models of neurodegeneration including the pattern recognition receptors, PKR and MDA5. Importantly, accelerated neuronal death was also observed over 48 hours that was dependent on the dose of the dsRNA introduced into the cytoplasm. These cell-based phenotypes in human neurons recapitulated and extended findings (described in PCT/US2015/060401) outlining cytoplasmic double-stranded RNA mediated neuronal cell death in multiple transgenic mouse lines (Nd1, Nd2, and Nd3), each expressing a different gene, and a model of induced cytoplasmic dsRNA of GFP causing accelerated neurodegeneration.
Deploying this cell-based in vitro model of accelerated neurodegeneration of human neurons, a number of inhibitors of Type I interferon signaling pathways were tested.
To determine if cytoplasmic dsRNA is sufficient to mediate neurodegeneration in human neurons, we transfected neuronal differentiated ReNcell VM cells 27, 28, a human neural cell line derived from ventral mesencephalon, with escalating doses of poly IC (which mimics a GC dinucleotide repeat). […] We observed a marked induction of the pattern recognition receptors MDA5 and PKR that are cytoplasmic receptors for dsRNA (FIG. 3G) and TBK1 phosphorylation (FIG. 4A). In addition, downstream signaling events, i.e., MAVS reduction and IRF3 translocation to the nucleus for the MDA5 pathway, and phosphorylation of p38 and HSP27 for the PKR pathway, indicate that that neurons are capable of mounting this innate immune response intrinsically. […]

The test system of another test is IRF3 phosphorylation. Briefly: IRF3 phosphorylation in poly-IC transfected ReNcell VM neurons. To be noted: poly-IC transfected ReNcell VM neurons treated with inhibitor. The class given is cell-based, human. An excerpt: To determine if cytoplasmic dsRNA is sufficient to mediate neurodegeneration in human neurons, we transfected neuronal differentiated ReNcell VM cells 27, 28, a human neural cell line derived from ventral mesencephalon, with escalating doses of poly IC (which mimics a GC dinucleotide repeat). […] We observed a marked induction of the pattern recognition receptors MDA5 and PKR that are cytoplasmic receptors for dsRNA (FIG. 3G) and TBK1 phosphorylation (FIG. 4A). In addition, downstream signaling events, i.e., MAVS reduction and IRF3 translocation to the nucleus for the MDA5 pathway, and phosphorylation of p38 and HSP27 for the PKR pathway, indicate that that neurons are capable of mounting this innate immune response intrinsically.
Many mutations in the TBK1 coding region are linked to ALS and FTD in an autosomal dominant manner. Expression of these mutant isoforms have been difficult to detect at the RNA and protein levels, giving rise to the hypothesis that haploinsufficiency of TBK1 drives neurodegeneration. Inhibition of TBK1 kinase activity challenge the hypothesis that LOF mutations cause the pathogenesis. TBK1 is activated by polyubiquitination and regulated by proteins binding to its CCH domain, including optineurin which binds TBK1, is mutated in some familial forms of ALS that abrogates inhibition of IRF3 4.

For the compound `O=C(Nc1ccc(-c2ccnc(Nc3ccc(N4CCOCC4)cc3)n2)cc1)[C@@H]1CCCN1` [XL019, (S)-N-(4-(2-((4-morpholinophenyl)amino)pyrimidin-4-yl)phenyl)pyrrolidine-2-carboxamide], the “rescue of PolyIC (dsRNA)-induced neurodegeneration / neuronal death” value in test [1] is recorded as “blocked neurodegeneration in dose dependent manner; also recorded: rescued PolyIC induced neurodegeneration”.

With `CC1(C)C(=O)C=C[C@]2(C)[C@H]3CC[C@@]4(C)[C@H](c5ccoc5)OC(=O)[C@H]5O[C@]54[C@]3(C)C=C[C@@H]12` [7DG], in test [1], the “rescue of PolyIC (dsRNA)-induced neurodegeneration / neuronal death” value was “did not show rescue of the neuronal death phenotype”.

`C1=C/COCc2cc(ccc2OCCN2CCCC2)Nc2nccc(n2)-c2cccc(c2)COC/1` [Pacritinib-1, 11-(2-pyrrolidin-1-yl-ethoxy)-14,19-dioxa-5,7,26-triaza-tetracyclo[19.3.1.1(2,6).1(8,12)]heptacosa-1(25),2(26),3,5,8,10,12(27),16,21,23-decaene]: the “rescue of PolyIC (dsRNA)-induced neurodegeneration / neuronal death” value in test [1] is given as “blocked neurodegeneration in dose dependent manner; also recorded: rescued PolyIC induced neurodegeneration”.

With `Cl.O=C(NN1CCC(N2CCCC2)CC1)c1ccc(Nc2nccc(-c3cc4ccccc4s3)n2)cc1` [IKK16, N-(4-Pyrrolidin-1-yl-piperidin-1-yl)-[4-(4-benzo[b]thiophen-2-yl-pyrimidin-2-ylamino)phenyl]carboxamide hydrochloride], the “rescue of PolyIC (dsRNA)-induced neurodegeneration / neuronal death” value in test [1] (hydrochloride) is reported as “reversed poly-IC-mediated neurodegeneration; also recorded: rescued PolyIC induced neurodegeneration”. Further, the IRF3 phosphorylation entry in the test on IRF3 phosphorylation was “reduced IRF3 phosphorylation”.

Regarding `C[C@@H]1CCN(C(=O)CC#N)C[C@@H]1N(C)c1ncnc2[nH]ccc12` [Tofacitinib, 3-((3R,4R)-4-methyl-3-(methyl(7H-pyrrolo [2,3-d]pyrimidin-4-yl)amino)piperidin-1-yl)-3-oxopropanenitrile], in test [1], the “rescue of PolyIC (dsRNA)-induced neurodegeneration / neuronal death” value is given as “blocked neurodegeneration in dose dependent manner; also recorded: rescued PolyIC induced neurodegeneration”.

In the case of PolyIC, the “viability of ReNVM neurons transfected with PolyIC” value in test [1] was “dose-dependent loss in cell viability”; in test [1] (listed as poly IC), “dose-dependent reduction in their viability”.

`N#CCNC(=O)c1ccc(-c2ccnc(Nc3ccc(N4CCOCC4)cc3)n2)cc1` [CYT387, N-(Cyanomethyl)-4-[2-[[4-(4-morpholinyl)phenyl]amino]-4-pyrimidinyl]benzamide]: the “rescue of PolyIC (dsRNA)-induced neurodegeneration / neuronal death” value in test [1] was “blocked neurodegeneration in dose dependent manner; also recorded: rescued PolyIC induced neurodegeneration”.

On to `Cc1cc(Nc2nc(N[C@@H](C)c3ncc(F)cn3)ncc2Cl)n[nH]1` [AZD1480, 5-Chloro-N2-[(1S)-1-(5-fluoro-2-pyrimidinyl)ethyl]-N4-(5-methyl-1H-pyrazol-3-yl)-2,4-pyrimidinediamine], for which, in test [1], the “rescue of PolyIC (dsRNA)-induced neurodegeneration / neuronal death” value is listed as “rescued PolyIC induced neurodegeneration”.

As to `O=C(Nc1nc2cccc(-c3ccc(CN4CCS(=O)(=O)CC4)cc3)n2n1)C1CC1` [Filgotinib, N-[5-[4-[(1,1-Dioxido-4-thiomorpholinyl)methyl]phenyl][1,2,4]triazolo[1,5-a]pyridin-2-yl]cyclopropanecarboxamide], in test [1], the “rescue of PolyIC (dsRNA)-induced neurodegeneration / neuronal death” value is “blocked neurodegeneration in dose dependent manner; also recorded: rescued PolyIC induced neurodegeneration”.

Turning to `CCS(=O)(=O)N1CC(CC#N)(n2cc(-c3ncnc4[nH]ccc34)cn2)C1` [Baricitinib, 2-(3-(4-(7H-pyrrolo[2,3-d]pyrimidin-4-yl)-1H-pyrazol-1-yl)-1-(ethylsulfonyl)azetidin-3-yl)acetonitrile], the “rescue of PolyIC (dsRNA)-induced neurodegeneration / neuronal death” value in test [1] was “blocked neurodegeneration in dose dependent manner; also recorded: rescued PolyIC induced neurodegeneration”.

Turning to `CC(C)c1ccc2oc3nc(N)c(C(=O)O)cc3c(=O)c2c1` [NK-10, amlexanox], the “rescue of PolyIC (dsRNA)-induced neurodegeneration / neuronal death” value in test [1] was “rescued neurodegeneration; also recorded: dose-dependent rescue of dsRNA-mediated neurodegeneration”; in test [1] (listed as Amlexanox) it was “rescued PolyIC induced neurodegeneration”.

`NC(=O)Nc1sc(-c2ccc(F)cc2)cc1C(N)=O` [NK-7, 2-[(Aminocarbonyl)amino]-5-(4-fluorophenyl)-3-thiophenecarboxamide]: the entries for the “rescue of PolyIC (dsRNA)-induced neurodegeneration / neuronal death” value in test [1], in test [1] (listed as TPCA1) and in test [1] (listed as TPCA-1) were “dose-dependent rescue of dsRNA-mediated neurodegeneration”, “reversed poly-IC-mediated neurodegeneration” and “rescued PolyIC induced neurodegeneration”, respectively. Moreover, the IRF3 phosphorylation result in the test on IRF3 phosphorylation was “reduced IRF3 phosphorylation”.

As for `CNC(=O)c1ccc(C)c(-n2c(C)cc(OCc3ccc(F)cc3F)c(Br)c2=O)c1` [PH 797804], the “rescue of PolyIC (dsRNA)-induced neurodegeneration / neuronal death” value in test [1] is “did not show rescue of the neuronal death phenotype”.

For the compound `O=C(NCCCNc1nc(Nc2cccc(NC(=O)N3CCCC3)c2)ncc1I)c1cccs1` [NK-6], the entries for the “rescue of PolyIC (dsRNA)-induced neurodegeneration / neuronal death” value in test [1] and in test [1] (listed as BX795) were “dose-dependent rescue of dsRNA-mediated neurodegeneration” and “rescues poly-IC-mediated neurodegeneration in a dose dependent manner; also recorded: rescued PolyIC induced neurodegeneration”, respectively.

For `O=C1Nc2ccc3ncsc3c2/C1=C/c1cnc[nH]1` [C16], in test [1], the “rescue of PolyIC (dsRNA)-induced neurodegeneration / neuronal death” value is recorded as “did not show rescue of the neuronal death phenotype”.

In the case of `Cc1cnc(Nc2ccc(OCCN3CCCC3)cc2)nc1Nc1cccc(S(=O)(=O)NC(C)(C)C)c1` [TG101348, 2.N-tert-butyl-3-(5-methyl-2-(4-(2-(pyrrolidin-1-yl)ethoxy)phenylamino)pyrimidin-4-ylamino)benzenesulfonamide], the “rescue of PolyIC (dsRNA)-induced neurodegeneration / neuronal death” value in test [1] is recorded as “blocked neurodegeneration in dose dependent manner; also recorded: rescued PolyIC induced neurodegeneration”.
